{
  "source": "patent US5132291A",
  "about": "“Antivirals and methods for increasing the antiviral activity of AZT” (priority 1989, dated 1992)",
  "key": {"WI-L2 cells": {"tested_on": "WI-L2 cells", "assay": "Lymphoblast assay, effects on cell growth, WI-L2 B-cell line", "format": "cell-based", "conditions": "AICA riboside alone, up to 500 μM", "protocol": "(§1) Several lymphoblast lines were utilized in conjunction with varying doses of antiviral agents to determine their effects on cell growth. In this method a daily cell count over a period of time, post-addition of antiviral compounds, can be compared with the normal cell growth curve.\n(§2) Two representative T-cell lines, SupT-1 and CEM, and a B-cell line, WI-L2, were grown to mid-log phase 5×10^5 cells/ml in 50 ml of RPMI 1640 (Irvine Scientific) supplemented with 10% heat-inactivated fetal calf serum (Gemini-Bioproducts) and 1% glutamine (Gibco) to standardize seeding conditions and to assure a population of logarithmically growing cells.\n(§3) An appropriate number cf T-25 flasks (Corning) were seeded with evenly suspended cells at 0.5×10^5 cells/ml in 20 ml of fresh growth media. Including a control condition, each set of flasks was treated with a dose range of antiviral compound for each cell line. Each dose condition was repeated in triplicate. All flasks were incubated for 5 days at 37° C. in a 5% CO2 incubator.\n(§4) Every 24 hours for 5 days, three 0.2 ml samples of each flask were diluted in 9.8 ml of isoton (Fisher Scientific) and counted on a cell counter (Coulter Co.). The average of each flask was recorded, and the average of each triplicate antiviral does was then averaged and recorded."}, "[1]": {"tested_on": "Chinese hamster lung fibroblasts", "conditions": "cited from earlier work"}, "SAH hydrolase": {"tested_on": "SAH hydrolase", "assay": "SAH hydrolase inhibition", "format": "biochemical", "protocol": "The effect of incubation time and AICA riboside concentration on SAH hydrolase activity was determined as follows. Five samples of SAH hydrolase were incubated at the following AICA riboside concentrations: 0, 10, 25, 50 and 100 μM. The incubation buffer consisted of 25 mM potassium phosphate pH 7.0, 1 mM EDTA, 1 mM, DTT and 0.04% BSA. The total enzyme added to incubation mixture was 10 μg. At indicated times, 10 μl of sample was withdrawn and assayed in the following assay system: 25 mM potassium phosphate, pH 7.0, 40 mM DL-Homocysteine, 1 mM EDTA, 1 mM DTT, 10 μM EHNA, 0.1% BSA and 10 μM U-^14 C Adenosine (590 m Ci/mmole). The reaction was stopped by adding 15 μl of 30% TCA. The samples were then centrifuged and 15 μl were removed and applied to Kodak cellulose 13254 TLC plates along with SAH and adenosine markers. The plates were then developed in a solvent system of 1-butanol:methanol:H2 O:ammonium hydroxide (60:20:20:2). The adenosine and S-adenosyl homocysteine were visualized under UV light and the spots were cut from the plate. Radioactivity of the spots was determined by liquid scintillation spectrometry. From a plot of the reciprocal of Kinactivation vs. 1/AICA riboside concentration the values of Ki (X-intercept) and Kmax (Y-intercept), were determined (FIG. 10(b))."}, "[2]": {"assay": "Lymphoblast assay, effects on cell growth, SupT-1 T-cell line", "format": "cell-based", "conditions": "human, supt-1 cells, AICA riboside alone, SUP T-1, read-out: reduction in T-cell growth", "protocol": "as §1, §2, §3, §4"}, "HIV": {"tested_on": "HIV", "assay": "HIV syncitial forming assay using SupT-1 cells", "format": "cell-based", "conditions": "AICA riboside 5 μM-500 μM", "protocol": "The assay was performed following the procedure described in Example Three except that SupT-1 cells were used. Using the SupT-1 cells, the medium was not changed at day 5 post-infection and the syncitia were counted at day 5 post-infection at 40X. The results are plotted in FIGS. 5, 6(b), and 7."}, "[3]": {"tested_on": "BAG vector pseudotyped by MA (amphotrophic murine leukemia virus)", "assay": "U937/BAG+MA colony resistance assay titered on 208F rat fibroblasts", "format": "cell-based", "conditions": "500 μM AICA riboside", "protocol": "A second, similar assay system was utilized in which a human macrophage line (U937) carrying the BAG retroviral vector construct (having neomycin resistance and beta-galactosidase marker genes), Cepko, PNAS, Vol. 84, p. 156-160 (1987), was infected with MA (amphotrophic MLV [murine leukemia virus]). MA was used to pseudotype the replication-defective BAG vector, which was then titered on 208F cells. According to this assay, the results of which are shown in FIG. 1c, 0.01 μM AZT and 500 μM AICA riboside were both effective against murine retroviruses. […]\nIn this colony-forming bioassay for the characterization of antiviral compounds against retroviruses, a replication-defective retroviral vector construct having the ability to confer neomycin-resistance (U937/BAG or N2) is psuedotyped, infects a single cell, and under neomycin selection, allows the recipient cell to form a colony. Since each infection yields a neomycin-resistant cell capable of producing a discrete group of cells, colonies can be counted, resulting in a linear relationship between the number of colonies and the first order of virus concentration. […]\nAfter drying, the plates were stained with 2 ml of 1:20 Glemsa (Sigma) for 1 hour. […] All colonies containing 50 or more cells were scored."}},
  "note": "Where two headings read alike, the source gives them in different places.",
  "data": [
    {"smiles": "NC(=O)c1ncn([C@@H]2O[C@H](CO)[C@@H](O)[C@H]2O)c1N", "note": "[AICA riboside, 5-amino-1-β-D-ribofuranosyl-imidazole-4-carboxamide]", "values": [
      {"measurement": "effect on WI-L2 (B-cell) growth", "setting": "WI-L2 cells", "result": "no effect"},
      {"measurement": "expansion of the purine pool (ATP and GTP)", "setting": "[1]; 50 μM and 200 μM", "result": "about 40%"},
      {"measurement": "growth rate", "setting": "[1]; 50 μM and 200 μM, reversible by uridine", "result": "reduced growth rate"},
      {"measurement": "drop in PRPP availability, measured by adenine incorporation", "setting": "[1]; 50 μM", "result": 18, "unit": "%"},
      {"measurement": "drop in PRPP availability, measured by adenine incorporation", "setting": "[1]; 200 μM", "result": 82, "unit": "%"},
      {"measurement": "effect on cell growth", "setting": "[1]; 200 μM, reversed by uridine", "result": "arrested cell growth"},
      {"measurement": "cytotoxicity", "setting": "[1]; 700 μM", "result": "no cytotoxicty"},
      {"measurement": "UTP and CTP pools", "setting": "[1]", "result": "decreased by a factor of approximately ten"},
      {"measurement": "inhibition of SAH hydrolase", "setting": "SAH hydrolase", "result": "very potent inhibitors"},
      {"measurement": "inhibition of SAH hydrolase", "setting": "SAH hydrolase; even at a concentration as low as 10 μM", "result": "potent inhibitors"},
      {"measurement": "inhibition at 500 µM", "setting": "[2]", "result": "30 to 50", "unit": "%"},
      {"measurement": "effectiveness against the AIDS virus (prevention of syncitial formation)", "setting": "HIV", "result": "less than 100%"},
      {"measurement": "effectiveness against murine retroviruses", "setting": "[3]", "result": "effective"}
    ]}
  ]
}
